The values below come from patent US20230256051A1, “MODIFIED KISSPEPTIN RECEPTOR AGONISTS FOR FATTY LIVER DISEASE” (priority 2020, published 2023).

In general, IC50 refers to the concentration needed to halve the response being measured. What is called EC50 is the midpoint of the concentration-response curve.

No end group written: not given here.

For assay [1], the target named is T1, KISS1R (Homo sapiens, UniProt Q969F8). Also noted: expressed in transfected cells; host or cells: CHO (CHO-KISS1R), membrane preparations. The note with it: CHO-KISS1R membrane preparations; means +/- SE; n = 3-5; read-out: IC50 against [125I]KP-54 binding to KISS1R; cited from earlier work.
Target sequence in this assay (Q969F8 whole entry, species assumed): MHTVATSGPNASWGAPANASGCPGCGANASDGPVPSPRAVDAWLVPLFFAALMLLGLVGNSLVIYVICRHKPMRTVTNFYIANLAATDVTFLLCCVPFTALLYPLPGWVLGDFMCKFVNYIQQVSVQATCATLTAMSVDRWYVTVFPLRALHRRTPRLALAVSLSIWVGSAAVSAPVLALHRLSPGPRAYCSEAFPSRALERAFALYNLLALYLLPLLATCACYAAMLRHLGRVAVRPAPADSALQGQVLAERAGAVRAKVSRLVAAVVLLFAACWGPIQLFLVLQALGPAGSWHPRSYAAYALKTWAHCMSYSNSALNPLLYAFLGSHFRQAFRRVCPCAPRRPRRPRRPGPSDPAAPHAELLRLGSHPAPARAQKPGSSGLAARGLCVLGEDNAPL
For assay [2], the target named is T1, KISS1R. Also noted: expressed in transfected cells; host or cells: CHO cells. The note with it: [Ca2+] increasing activity, CHO cells expressing human KISS1R; (95% confidence interval); read-out: Agonist activity EC50; cited from earlier work.
Target sequence in this assay (Q969F8 whole entry): as the sequence (Q969F8 whole entry, species assumed) above
In the next assay the test system is healthy men. As to conditions: cited from earlier work.
Assay [3] concerns primary mouse hepatocytes. Briefly: FFA-loaded isolated primary mouse hepatocytes treated with KP-10 or TAK. The note with it: primary mouse hepatocytes.
Method: (n=4) * p < 0.05; One-way ANOVA followed by Dunnett’s post-hoc test.
Primary hepatocytes from mice were isolated according to known methods. Mice (wild-type, C57BL6) or LKO and littermate controls were anesthetized using a ketamine/xylazine mixture (Henry Schein™). The liver was cannulated via the hepatic portal vein and first perfused with 37° C. Kreb’s Ringer solution containing EGTA for 10 minutes. After the first wash, a second Kreb’s Ringer solution containing CaCl2 and LIBERASE (Roche™) was used until the liver was thoroughly perfused. Hepatocytes were filtered through a gauze mesh and resuspended in William’s Media E (Sigma™) with 10 % FBS (Sigma™), 200 nM dexamethasone (Sigma™), 5 mM pen/strep (Fisher™), 2 mM L-glutamine (Fisher™). Cells were plated at a density of 3 × 10^5 on 6-well collagen-coated plates (Sigma™). Hepatocytes were left to recover overnight and then were serum starved for 3 hours prior to experiments. For free fatty acid (FFA) loading, 150 µM oleic and 150 µM palmitic acid was conjugated with 2% BSA (0.3 mM).

On to ANWNSFGLRF [ANA1], for which, on KISS1R [1], the IC50 was 23.2 ± 14.3 nM.

For the substance “Ac-YNK(Palm-γ-D)NSFGT[Tz]LRY-NH2 [Compound 4**, Decourt et al., 2016 numbering]”, the EC50 at KISS1R [2] was 2.1 nM.

For “Ac-YNWNSFGT[Tz]LR[Me]Y-NH2 [Compound 7**, Decourt et al., 2016 numbering]”, at KISS1R [2], the EC50 was 1.5 nM.

Consider FNWNSFGLRF [ANA11], for which, on KISS1R [1], the IC50 is 3.5 ± 2.1 nM.

Turning to “Gly-Thr-Ser-Leu-Ser-Pro-Pro-Pro-Glu-Ser-Ser-Gly-Ser-Arg-Gln-Gln-Pro-Gly-Leu-Ser-Ala-Pro-His-Ser-Arg-Gln-Ile-Pro-Ala-Pro-Gln-Gly-Ala-Val-Leu-Val-Gln-Arg-Glu-Lys-Asp-Leu-Pro-Asn-Tyr-Asn-Trp-Asn-Ser-Phe-Gly-Leu-Arg-Phe-NH2 (GTSLSPPPESSGSRQQPGLSAPHSRQIPAPQGAVLVQREKDLPNYNWNSFGLRF-NH2) [Kisspeptin-54]”, in the assay with healthy men, the “food intake or appetite” value is “without altering” and the insulin secretion result is “enhance”.

“Palm-γ-DYNWNSFGT[Tz]LR[Me]Y-NH2 [Compound 6**, Decourt et al., 2016 numbering]”: on KISS1R [2], the concentration giving a half-maximal response (EC50) is 0.17 nM.

On to “Palm-γ-DYNWNSFG′P[Tz]LRY-NH2 [Compound 5**, Decourt et al., 2016 numbering]”, for which, on KISS1R [2], the EC50 is 0.13 nM.

As to YAWNSFGLRF [ANA2], the IC50 on KISS1R [1] was 145 ± 138 nM.

Take YDWNSFGLRF [ANA12]: the IC50 at KISS1R [1] was 29.1 ± 13.5 nM.

With YNANSFGLRF [ANA3], the IC50 on KISS1R [1] was 2.7 ± 0.7 nM.

For the substance YNWASFGLRF [ANA4], the IC50 on KISS1R [1] is 43.5 ± 15.5 nM.

Regarding YNWDSFGLRF [ANA13], on KISS1R [1], the IC50 is 140 ± 60.6 nM.

With YNWNAFGLRF [ANA5], the IC50 at KISS1R [1] was 0.8 ± 0.4 nM.

For the substance YNWNSAGLRF [ANA6], the IC50 on KISS1R [1] is 110 ± 89.8 nM.

YNWNSFALRF [ANA7]: the IC50 at KISS1R [1] is 4.6 ± 1.5 nM.

As for YNWNSFGARF [ANA8], the IC50 on KISS1R [1] was 77.4 ± 10 nM.

Regarding YNWNSFGIRF [ANA 16], the 50% inhibitory concentration (IC50) on KISS1R [1] was 39.9 ± 8.1 nM.

Turning to YNWNSFGLKF [ANA17], at KISS1R [1], the IC50 was 9.8 ± 2.6 nM.

Consider YNWNSFGLRF [Kisspeptin-10], for which the “expression of de novo lipogenic genes” value in assay [3] (treatment for 8 hours, RT-qPCR) is “reduced”. The “phosphorylation of AMPK and its downstream target ACC” value in assay [3] (western blot, n=4) is recorded as “stimulated phosphorylation”.

With YNWNSFGLRH [ANA18], the concentration for half-maximal inhibition (IC50) on KISS1R [1] was 378 ± 266 nM.

Take “YNWNSFGLRY [Compound 2**, Decourt et al., 2016 numbering]”: at KISS1R [2], the EC50 was 0.057 nM.

Regarding YNWNSYGLRF [ANA15], the IC50 on KISS1R [1] is 87.5 ± 30.7 nM.

Take YNWNTFGLRF [ANA14]: at KISS1R [1], the IC50 is 2.3 ± 1.6 nM.
